The record followed here is US20170112897A1, “METHODS FOR TREATING BRAIN INSULIN RESISTANCE” (priority 2015, published 2017).

This test deals with SOCS3 associated with the insulin receptor (SOCS3/IRβ). Briefly: Ex vivo Western blotting of SOCS3 to IR beta chain ratio in hippocampal formation. The test is classed as cell-based, human. The note with it: MCI cases. The text has this: The data shown are ratios of SOCS3 to IR beta chain (IRβ) in ex vivo Western blotting tests on the hippocampal formation of age- and sex-matched normal (N), non-amnestic mild cognitive impairment (naMCI), amnestic mild cognitive impairment (aMCI), and AD dementia (ADd) cases (n=10 in each group). The basal SOCS3/IRβ levels were highly elevated in naMCI, aMCI, and ADd cases compared to the normal cases. […] Asterisks indicate statistical significance levels for differences within diagnostic groups (*=p<0.05 and *** p=<0.0001).
In general terms: A western blot detects proteins with antibodies after separation by electrophoresis.

D-Ala^2 GIP: the “basal SOCS3/IRβ ratio” value is reported as “highly effective in reducing this ratio”.
